From PMC4113456, “Atypical Signaling and Functional Desensitization Response of MAS Receptor to Peptide Ligands” (PLoS ONE, 2014)
Where a chain is given by its changes, count along the chain named. Marks after values point to notes of the source that are not given here.

Tests used:
MAS F112A mutant = biological target: T1, MAS F112A mutant (Homo sapiens, UniProt P04201, F112A); test: IP1 assay, F112A MAS mutant stable cell line; format: cell-based
T1 construct: expressed in transfected cells
T1 sequence (P04201 1-325 F112A): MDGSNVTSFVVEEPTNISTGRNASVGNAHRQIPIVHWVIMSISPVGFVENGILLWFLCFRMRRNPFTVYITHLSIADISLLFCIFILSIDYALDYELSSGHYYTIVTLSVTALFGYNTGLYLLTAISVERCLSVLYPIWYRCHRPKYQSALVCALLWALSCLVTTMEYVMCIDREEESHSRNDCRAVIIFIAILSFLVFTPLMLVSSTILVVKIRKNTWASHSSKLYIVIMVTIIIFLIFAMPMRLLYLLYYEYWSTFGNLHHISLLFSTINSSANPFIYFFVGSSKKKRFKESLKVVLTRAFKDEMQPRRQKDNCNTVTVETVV
From the text: (§1) The WT MAS expression construct was synthesized with an N-terminal myc-tag (Figure 1) by GenScript (Piscataway, NJ). The myc-tagged WT MAS from this vector was initially sub-cloned into pcDNA3.1 and later sub-cloned into tetracycline/doxycycline inducible vector pcDNA 5/TO (Life Technologies, Grand Island, NY). Four different ligand binding MAS mutants (F112A, I191A, M244A and T270A) were created using site-directed mutagenesis of WT myc-tagged MAS in pcDNA3.1 or pcDNA 5/TO vector background (Agilent Technologies, Santa Clara, CA). WT MAS receptor without an epitope tag was constructed by replacing the 5′ portion of the myc-tagged WT MAS in pcDNA 5/TO by untagged MAS sequence from a plasmid construct provided as a gift from Arena Pharmaceuticals, Inc. (San Diego, CA). The sequences of all WT and mutant MAS genes in plasmid constructs were verified by capillary DNA sequencing at the Genomics Core at Lerner Research Institute (Cleveland, OH).
IP1 levels in the cells were measured using the IP-One Tb kit (Cisbio US, Bedford, MA). For the assay, cells were seeded onto a 384-well low volume white cell culture plate at a density of 25,000 cells/well in 20 µl of induction or complete medium. In the IP1 assays the cell density of 25,000 cells/well was consistently maintained to minimize variability between independent experiments. The cells were maintained in a cell culture incubator for 26–28 h. […] Time-resolved ratiometric fluorescence emission measurements at 665 nm and 620 nm were taken after excitation at 343 nm on FlexStation 3 instrument. […]
(§2) For re-stimulation assays, the data is expressed as the percentage of maximum agonist stimulation to allow for ready comparison between individual experiments. For the IP1 assay, a standard curve was generated using the 4-Parameter logistic equation fit of the HTRF readings of IP1 standards using the SoftMax Pro software. […] In the luciferase assay, the luminescence measurements (RLU) are presented as a ratio of firefly to renilla luciferase activity. […]

MAS M244A mutant = biological target: T2, MAS M244A mutant (Homo sapiens, UniProt P04201, M244A); test: IP1 assay, M244A MAS mutant stable cell line; format: cell-based
T2 construct: expressed in transfected cells
T2 sequence (P04201 1-325 M244A): T1 sequence (P04201 1-325 F112A) with A112F, M244A
From the text: The WT MAS expression construct was synthesized with an N-terminal myc-tag (Figure 1) by GenScript (Piscataway, NJ). The myc-tagged WT MAS from this vector was initially sub-cloned into pcDNA3.1 and later sub-cloned into tetracycline/doxycycline inducible vector pcDNA 5/TO (Life Technologies, Grand Island, NY). Four different ligand binding MAS mutants (F112A, I191A, M244A and T270A) were created using site-directed mutagenesis of WT myc-tagged MAS in pcDNA3.1 or pcDNA 5/TO vector background (Agilent Technologies, Santa Clara, CA). […]
IP1 levels in the cells were measured using the IP-One Tb kit (Cisbio US, Bedford, MA). […] Time-resolved ratiometric fluorescence emission measurements at 665 nm and 620 nm were taken after excitation at 343 nm on FlexStation 3 instrument. […]
as §2

MAS [1] = tested on: MAS; set-up: method as in ref [9] (a number printed in a supplementary file, which may have a reference list of its own: not looked up in the article's list); conditions: Rat MAS; ref [9]; read-out: EC50 (IP1 assay); cited from earlier work
MAS I191A mutant = biological target: T3, MAS I191A mutant (Homo sapiens, UniProt P04201, I191A); test: IP1 assay, I191A MAS mutant stable cell line; format: cell-based
T3 construct: expressed in transfected cells
T3 sequence (P04201 1-325 I191A): T1 sequence (P04201 1-325 F112A) with A112F, I191A
From the text: as §1
IP1 levels in the cells were measured using the IP-One Tb kit (Cisbio US, Bedford, MA). For the assay, cells were seeded onto a 384-well low volume white cell culture plate at a density of 25,000 cells/well in 20 µl of induction or complete medium. In the IP1 assays the cell density of 25,000 cells/well was consistently maintained to minimize variability between independent experiments. The cells were maintained in a cell culture incubator for 26–28 h. The cells were then serum starved for 2 h by replacing the medium with 7 µl of serum free DMEM/F-12. During this step, 7 µl of serum free DMEM/F-12 was also added to the wells to which IP1 standards would be subsequently added. Following serum starvation, 7 µl of ligands and serially diluted IP1-standards prepared at 2x concentration in stimulation buffer (10 mM Hepes, 1 mM CaCl2, 0.5 mM MgCl2, 4.2 mM KCl, 146 mM NaCl, 5.5 mM glucose, 50 mM LiCl, pH 7.4) were added to the appropriate wells. The cells were then placed in the cell culture incubator for 4 h. Later, 3 µl each of d2-labeled IP1 and anti-IP1 cryptate Tb conjugated antibody diluted in lysis buffer was added sequentially to all the wells and the plate was incubated overnight in the dark at room temperature. Time-resolved ratiometric fluorescence emission measurements at 665 nm and 620 nm were taken after excitation at 343 nm on FlexStation 3 instrument. […]
as §2

MAS [2] = biological target: T4, MAS (Homo sapiens, UniProt P04201); test: FLIPR calcium assay, induced myc-tagged WT MAS HEK293 stable cell line; format: cell-based
T4 construct: expressed in transfected cells
T4 sequence (P04201 1-325): T1 sequence (P04201 1-325 F112A) with A112F
Procedure: The assay was performed using FLIPR Calcium 5 assay kit (Molecular Devices, Sunnyvale, CA). For calcium measurements, cells at a density of 125,000 cells/well in 100 µl medium were seeded onto a 96-well clear bottom black cell culture plate that was pre-coated with poly-L-lysine. In the calcium assays the cell density of 125,000 cells/well was consistently maintained to minimize variability between independent experiments. The cells were seeded in induction media to induce MAS expression or in complete media for negative controls. The plate was maintained in a cell culture incubator for 26–28 h. The cells were then serum starved for 2 h by replacing the medium with 100 µl of serum free DMEM. In the case of pre-treatment with pan-inhibitor of G protein signaling, BIM-46187, the cells were initially serum starved for 1 h by replacing the medium with 50 µl of serum free DMEM. After 1 h, 50 µl of BIM-46187 was added to the cells to a final concentration of 25 µM and treated for another 1 h. Following serum starvation, 100 µl of calcium sensitive dye along with 2x (2.5 mM final concentration) probenecid (Life Technologies, Grand Island, NY) was added to the cells. During this step, AR-inverse agonist or BIM-46187 was also added at desired concentrations to the calcium dye preparation in case of experiments where cells were pre-treated with these inhibitors. The cells were maintained for one hour in the cell culture incubator. Following this, the 96-well plate containing cells loaded with calcium dye and a U-bottom 96-well plate containing ligands at 5x the desired final concentration in D-PBS (1.47 mM KH2PO4, 138 mM NaCl, 2.67 mM KCl, 8.1 mM Na2HPO4, pH 7.3) were allowed to equilibrate for 15 min on a FlexStation 3 instrument (Molecular Devices, Sunnyvale, CA) at 37°C. The plates were further equilibrated on the instrument for 5 min with the lids removed from the plates. The instrument was programmed in FLEX mode to add ligands (50 µl at 5x concentration) to the cells and to monitor the fluorescence before and after adding the ligands. In re-stimulation and antagonism assays the instrument is programmed to add 35 µl of first ligand followed by addition of the second ligand (35 µl) after 10 min. […] Therefore, when using 5x ligand stock the maximum AR-agonist concentration that could be tested was 10 µM.
In the calcium assays, the maximum response and minimum response values in relative fluorescence units (RFU) were extracted by subtracting the corresponding baseline value wherein baseline is defined as the average fluorescence of all time points before addition of ligand.
The kinetic parameter t1/2 (time taken to reach half of the maximum response) was determined using SoftMax Pro software supplied with the FlexStation 3 instrument (Molecular Devices, Sunnyvale, CA).
For re-stimulation assays, the data is expressed as the percentage of maximum agonist stimulation to allow for ready comparison between individual experiments. […] For all the assays, the EC50 and IC50 values were estimated by fitting the data to a three parameter dose response using GraphPad Prism software (GraphPad, La Jolla, CA).

Structure (SMILES)	EC50, IP1 assay (MAS F112A mutant)	EC50, IP1 assay (MAS M244A mutant)	EC50 (MAS [1]) [nM]	EC50 (MAS I191A mutant) [nM]	Fold over WT, EC50 IP1 assay (MAS I191A mutant)	t1/2 (time taken to reach half of the maximal calcium response), Calcium assay (MAS [2]; WT MAS) [s]	EC50 (MAS [2]; WT MAS, induced cells) [nM]	Fold over WT, EC50 Calcium assay (MAS [2]; WT construct)	Fold over WT, IC50 IP1 assay (MAS F112A mutant)	IC50 (MAS F112A mutant) [nM]	IC50, IP1 assay (MAS M244A mutant)	Fold over WT, IC50 IP1 assay (MAS I191A mutant)	IC50 (MAS I191A mutant) [nM]	IC50 (MAS [2]; WT MAS, induced cells, inhibition of constitutive activity) [nM]
COc1cc([N+](=O)[O-])ccc1S(=O)(=O)N1CC(CN2CCN(c3ccccn3)CC2)C(c2cccc(F)c2)C1 (stereo not drawn) [AR-agonist]	cbd	cbd	170	2400 ± 1100	1.8	31.2 ± 2.1	1500 ± 300	1						
C=CCCN1CCC2(CC1)CN(C(=O)c1c(F)cccc1F)c1ccc(Cl)cc12 [AR-inverse]			348						3**	2100 ± 400	cbd	1.3	900 ± 100	900 ± 600
